Counter-ions that a name gives are not always drawn. Like-named read-outs stand apart in the source and are kept apart here.
Tested on: cGMP-PDE V
Experiment: c-GMP-PDE V inhibitory activity
Type: biochemical, various animal species and man
Experimental: The cGMP-PDE and other PDE isozymes were isolated from cardiovascular tissues (heart and aorta) of various animal species and man by anion-exchange and affinity chromatography as described by Silver et al., Sec. Messeng. Phos. 13:13-25, 1991; PDE activity, in the presence and absence of test compounds was determined essentially as described by Thompson et al., Adv. Cyclic Nucleotide Res. 10:69-92. To determine the potency and selectivity of compounds as PDE inhibitors, compounds are screened for their effect on cyclic nucleotide hydrolysis at 10 μM. […] The IC50 values are calculated from concentration-response curves as described by Tallarida and Murray, Manual of Pharmacologic Calculations with Computer Programs, Procedure 8, Graded Dose-response, pp. 14-19, Springer-Verlag, New York, 1981.

[1] = separate experimental runs, first value
[2] = separate experimental runs, second value
[3] = separate experimental runs, third value

Structure (SMILES)	IC50 [nM]	other results
CCn1ncc2c(NC[C@@H]3CCC[C@H](O)C3)c3cc([N+](=O)[O-])ccc3nc21 (relative stereo) [Example 36(a), 1-ethyl-6-nitro-N-(3-hydroxycyclohexylmethyl)-1 H-pyrazolo[3,4-b]quinolin-4-amine]	10.1	–
CCn1ncc2c(NC[C@@H]3CCC[C@@H](O)C3)c3cc([N+](=O)[O-])ccc3nc21 (relative stereo) [Example 36(b), 1-ethyl-6-nitro-N-(3-hydroxycyclohexylmethyl)-1H-pyrazolo[3,4-b]quinolin-4-amine]	19.3	–
CCn1ncc2c(N[C@@H](C)C3CCCCC3)c3cc([S+](C)[O-])ccc3nc21 (single isomer, unassigned) [48(e), 1-ethyl-6-(methylsulfinyl)-N-[S(+)-1-(cyclohexyl)ethyl]-1H-pyrazolo[3,4-b]quinolin-4-amine]	7.6	–
CCn1ncc2c(N[C@@H](C)C3CCCCC3)c3cc([S+](C)[O-])ccc3nc21 (single isomer, unassigned) [Example 48(d), 1-ethyl-6-(methylsulfinyl)-N-[S(+)-1-(cyclohexyl)ethyl]-1H-pyrazolo[3,4-b]quinolin-4-amine]	4.2	–
CCn1nc(C)c2c(NCC3CCCCC3)c3ccccc3nc21 [2(c), 1-ethyl-3-methyl-N-(cyclohexylmethyl)-1H-pyrazolo[3,4-b]quinolin-4-amine hydrochloride]	82	–
CCn1ncc2c(NCC3CCCCC3)c3cccc(OC)c3nc21 [9(f), 1-ethyl-8-methoxy-N-(cyclohexylmethyl)-1H-pyrazolo[3,4-b]quinolin-4-amine]	610	–
c1ccc(Cn2ncc3c(NCC4CCCCC4)c4ccccc4nc32)cc1 [10(d), 1-phenylmethyl-N-(cyclohexylmethyl)-1H-pyrazolo[3,4-b]quinolin-4-amine]	260	–
c1ccc2c(NCC3CCCCC3)c3cnn(C4CCCC4)c3nc2c1 [11(e), 1-cyclopentyl-N-(cyclohexylmethyl)-1H-pyrazolo[3,4-b]quinolin-4-amine]	150	–
CCn1ncc2c(NCC3CCCCC3)c3ccc([N+](=O)[O-])cc3nc21 [16(c), 1-ethyl-7-nitro-N-(cyclohexylmethyl)-1H-pyrazolo[3,4-b]quinolin-4-amine]	150	–
CCn1ncc2c(NCC3CCCCC3)c3ccc(OC)cc3nc21 [18(d), 1-ethyl-7-methoxy-N-(cyclohexylmethyl)-1H-pyrazolo[3,4-b]quinolin-4-amine]	147	–
CCn1ncc2c(NCC3CCC(O)CC3)c3cc(OC)ccc3nc21 (stereo not drawn) [19(d), 1-ethyl-6-methoxy-N-(4-hydroxycyclohexylmethyl)-1H-pyrazolo[3,4-b]quinolin-4-amine]	–	Percent Inhibition cGMP-PDE V (0.1 μM): 28%
CCn1ncc2c(NCC3CCCCC3)c3cc(NC(C)=O)ccc3nc21 [24(c), 1-ethyl-6-acetamido-N-(cyclohexylmethyl)-1H-pyrazolo[3,4-b]quinolin-4-amine]	51	–
CCn1ncc2c(NCC3CCC(=O)CC3)c3cc(OC)ccc3nc21 [28(b), 1-ethyl-6-methoxy-N-[4-oxocyclohexylmethyl]-1H-pyrazolo[3,4-b]quinolin-4-amine]	–	Percent Inhibition cGMP-PDE V (0.1 μM): 0%; Percent Inhibition cGMP-PDE V (1 μM): 25%; Percent Inhibition cGMP-PDE V (10 μM): 79%
CCn1ncc2c(NCC3CCCCC3)c3cc(C(=O)OC)ccc3nc21 [29(d), 1-ethyl-6-methoxycarbonyl-N-(cyclohexylmethyl)-1H-pyrazolo[3,4-b]quinolin-4-amine]	15	–
CCn1ncc2c(N[C@@H](CO)C3CCCCC3)c3cc([N+](=O)[O-])ccc3nc21 [40(c), 1-ethyl-6-nitro-N-[R-(-)-1-(cyclohexyl)ethanol]-1H-pyrazolo[3,4-b]quinolin-4-amine]	2.4	–
CCn1ncc2c(N[C@@H](C)C3CCCCC3)c3cc(C#N)ccc3nc21 [41(c), 1-ethyl-6-cyano-N-[S(+)-(1-cyclohexyl)ethyl]-1H-pyrazolo[3,4-b]quinolin-4-amine]	0.96	–
CCn1ncc2c(N[C@@H](C)C3CCCCC3)c3cc(OC)c(OC)cc3nc21 [42(c)]	112	–
CCn1ncc2c(NCC3CCCCC3)c3cccc(Br)c3nc21 [44(d), 1-ethyl-8-bromo-N-(cyclohexylmethyl)-1H-pyrazolo[3,4-b]quinolin-4-amine]	–	Percent Inhibition cGMP-PDE V (0.01 μM): 17%; Percent Inhibition cGMP-PDE V (0.1 μM): 20%; Percent Inhibition cGMP-PDE V (1 μM): 70%
CCN(CC)S(=O)(=O)c1ccc2nc3c(cnn3C(C)C)c(NCC3CCCCC3)c2c1 [45(d), 1-isopropyl-6-(diethylaminosulfonyl)-N-(cyclohexylmethyl)-1H-pyrazolo[3,4-b]quinolin-4-amine]	44	–
CCn1ncc2c(N[C@@H](C)C3CCCCC3)c3cc(-c4noc(C)n4)ccc3nc21 [47(c)]	23	–

Structure (SMILES)	IC50 [nM]	other results
CCn1ncc2c(N[C@@H](C)C3CCCCC3)c3cc(S(=O)(=O)C(F)(F)F)ccc3nc21 [53(c), 1-ethyl-6-(trifluoromethylsulfonyl)-N-[S (+)-1-(cyclohexyl)ethyl]-1H-pyrazolo[3,4-b]quinolin-4-amine]	5.4	–
CCn1ncc2c(NCC3CCC(C(=O)OC)CC3)c3ccccc3nc21 (stereo not drawn) [Example 3, 1-ethyl-N-[(4-methoxycarbonylcyclohexyl)methyl]-1H-pyrazolo[3,4-b]quinolin-4-amine]	300	–
CCn1ncc2c(NCC3CC3)c3ccccc3nc21 [Example 4, 1-ethyl-N-(cyclopropylmethyl)-1H-pyrazolo[3,4-b]quinolin-4-amine]	3000	–
CCn1ncc2c(NCC3CCC(C(=O)OCSC)CC3)c3ccccc3nc21 (stereo not drawn) [Example 5, 1-ethyl-N-[[4-(methylthiomethoxycarbonyl)cyclohexyl]methyl]-1H-pyrazolo[3,4-b]quinolin-4-amine]	–	Percent Inhibition cGMP-PDE V (0.1 μM): 4%; Percent Inhibition cGMP-PDE V (1 μM): 34%; Percent Inhibition cGMP-PDE V (10 μM): 81%
CCn1ncc2c(NCC3CCCCC3)c3cc(OCCN(C)C)ccc3nc21 [Example 12]	240	–
CCn1ncc2c(NCC3CCCCC3)c3cc(N)ccc3nc21 [Example 20, 1-ethyl-6-amino-N-(cyclohexylmethyl)-1H-pyrazolo[3,4-b]quinolin-4-amine]	300	–
CCn1ncc2c(NCC3CCCCC3)c3ccc(N)cc3nc21 [Example 25, 1-ethyl-7-amino-N-(cyclohexylmethyl)-1H-pyrazolo[3,4-b]quinolin-4-amine]	–	Percent Inhibition cGMP-PDE V (0.1 μM): 7%; Percent Inhibition cGMP-PDE V (1 μM): 68%; Percent Inhibition cGMP-PDE V (10 μM): 95%
CCn1ncc2c(N[C@@H](C)C3CCCCC3)c3cc(OC)ccc3nc21 [Example 26, 1-ethyl-6-methoxy-N-[S(+)-1-(cyclohexyl)ethyl]-1H-pyrazolo[3,4-b]quinolin-4-amine]	–	IC50 [1]: 2.6 nM; IC50 [2]: 5.2 nM
CCn1ncc2c(N[C@H](C)C3CCCCC3)c3cc(OC)ccc3nc21 [Example 27, 1-ethyl-6-methoxy-N-[R(-)-1-(cyclohexyl)ethyl]-1H-pyrazolo[3,4-b]quinolin-4-amine]	–	IC50 [1]: 340 nM; IC50 [2]: 210 nM; IC50 [3]: 266 nM
CCn1ncc2c(NCC3CCCCC3)c3cc(C(=O)O)ccc3nc21 [Example 30, 1-ethyl-6-carboxy-N-(cyclohexylmethyl)-1H-pyrazolo[3,4-b]quinolin-4-amine]	30	–
CCn1ncc2c(NCC3CCCCC3)c3cc(-c4ccncc4)ccc3nc21 [Example 31]	32	–
CCn1ncc2c(NCC3(O)CCCCC3)c3cc(OC)ccc3nc21 [Example 32, 1-ethyl-6-methoxy-N-[(1-hydroxycyclohexyl)methyl]-1H-pyrazolo[3,4-b]quinolin-4-amine]	–	Percent Inhibition cGMP-PDE V (0.1 μM): 43%; Percent Inhibition cGMP-PDE V (1 μM): 79%; Percent Inhibition cGMP-PDE V (10 μM): 96%
CCn1ncc2c(NCC3CCCCC3)c3cc(OCCN4CCOCC4)ccc3nc21 [Example 33, 1-ethyl-6-[2-(4-morpholinyl)ethoxy]-N-(cyclohexylmethyl)-1H-pyrazolo[3,4-b]quinolin-4-amine]	92	–
CCn1ncc2c(N[C@H](C)C3CCCCC3)c3cc([N+](=O)[O-])ccc3nc21 [Example 35, 1-ethyl-6-nitro-N-[R (-)-1(cyclohexyl)ethyl]-1H-pyrazolo[3,4-b]quinolin-4amine]	–	IC50 [1]: 8.6 nM; IC50 [2]: 9.5 nM; IC50 [3]: 9.5 nM
C[C@H](Nc1c2ccccc2nc2c1cnn2Cc1ccccc1)C1CCCCC1 [Example 38, 1-benzyl-N-[S (+)-1(cyclohexyl)ethyl]-1H-pyrazolo[3,4-b]quinolin-4-amine]	–	Percent Inhibition cGMP-PDE V (0.01 μM): 9%; Percent Inhibition cGMP-PDE V (0.1 μM): 22%; Percent Inhibition cGMP-PDE V (1 μM): 77%
CCn1ncc2c(N[C@@H](C)C3CCCCC3)c3ccccc3nc21 [Example 39, 1-ethyl-N-[S(+)-1-(cyclohexyl)ethyl]-1H-pyrazolo[3,4-b]quinolin-4-amine]	15	–
CCn1ncc2c(N[C@@H](C)C3CCCCC3)c3cc(-n4ccnc4)ccc3nc21 [Example 43, 1-ethyl-6-(1-imidazolyl)-N-[S(+)-1-(cyclohexyl)ethyl]-1H-pyrazolo[3,4-b]quinolin-4-amine]	27	–
CCn1ncc2c(N[C@@H](C)C3CCCCC3)c3cc(Br)ccc3nc21 [Example 46, 1-ethyl-6-bromo-N-[S(+)-1-(cyclohexyl)ethyl]-1H-pyrazolo[3,4-b]quinolin-4-amine]	0.37	–
CCn1ncc2c(NCC3CCCCC3)c3cc([S+](C)[O-])ccc3nc21 (stereo not drawn) [Example 49, 1-ethyl-6-(methylsulfinyl)-N-(cyclohexylmethyl)-1H-pyrazolo[3,4-b]quinolin-4-amine]	18	–
CCn1ncc2c(N[C@@H](C)C3CCCCC3)c3cc(-n4cc(C)cn4)ccc3nc21 [Example 50, 1-ethyl-6-(4-methyl-1-pyrazolyl)-N-[S(+)-1-(cyclohexyl)ethyl]-1H-pyrazolo[3,4-b]quinolin-4-amine]	9.1	–
